Measurements as given in patent publication US8293736B2, “Purine compounds selective for PI3K P110 delta, and methods of use” (F. Hoffmann la Roche AG, priority 2010, dated 2012).
pKi: −log10 of the molar value.

Key:
p110 delta = biological target: T1, p110 delta (Homo sapiens, UniProt O00329); test: PI3K isoform inhibition assay (fluorescence polarization), p110 delta; format: biochemical; conditions: Ki apparent, Morrison equation; 25 μM ATP, 10 μM PIP2
T1 construct: purchased Upstate Group, Millipore; Dundee, UK
Procedure: (§1) Determination of the activity of PI3 kinase activity of Formula I compounds is possible by a number of direct and indirect detection methods.
(§2) PI3K enzymatic activity was assayed by measuring the amount of product phosphatidylinositol 3,4,5-phosphate (PIP3) formed from substrate 4,5 phosphatidylinositol 4,5-phosphate (PIP2) using a fluorescence polarization displacement assay. The decrease in fluorescence polarization of a fluorescent PIP3 probe is measured as it is displaced from a PIP3-binding protein GRP-1 detector by PI3K-catalyzed product. […] The kinase reactions were initiated by the addition of 40 ng/mL p110α/p85α, 300 ng/mL p110β/p85α, 40 ng/mL p110γ, or 40 ng/mL p110δ/p85α (Upstate Group, Millipore; Dundee, UK), and 10 μM PIP2 (Echelon Biosciences) to the wells. […] After 60 minutes of incubation at room temperature to allow equilibration of labeled and unlabeled PIP3 binding, the parallel and perpendicular components of the fluorescence emissions from each sample were measured at an excitation wavelength of 530 nm and an emission wavelength of 590 nm using an Envision fluorescent plate reader with a rhodamine filter (PerkinElmer Life and Analytical Sciences; Wellesley, Mass.). The assay is capable of detecting 0.1-2.0 μM PIP3 product. The Ki apparent values were obtained by fitting the dose-dependent inhibition data to the Morrison equation for tight-binding, competitive inhibitors. Reference: R. A. Copeland, Enzymes. “A Practical Introduction to Structure, Mechanism and Data Analysis”.
The Formula I compound was serially diluted in 100% DMSO. The kinase reaction was incubated for 1 h at room temperature, and the reaction was terminated by the addition of PBS. IC50 values were subsequently determined using sigmoidal dose-response curve fit (variable slope). […]

p110 alpha = biological target: T2, p110 alpha (Homo sapiens, UniProt P42336); test: PI3K isoform inhibition assay (fluorescence polarization), p110 alpha; format: biochemical; conditions: delta/alpha selectivity ratio
T2 construct: purchased Upstate Group, Millipore; Dundee, UK
Procedure: as §1, §2
The same protocol may be used to establish Ki values for p110α (alpha) PI3K binding.
The four Class I PI 3-kinases are cloned into baculovirus vectors as follows: […]

T2 sequence (P42336 whole entry, species assumed, canonical isoform): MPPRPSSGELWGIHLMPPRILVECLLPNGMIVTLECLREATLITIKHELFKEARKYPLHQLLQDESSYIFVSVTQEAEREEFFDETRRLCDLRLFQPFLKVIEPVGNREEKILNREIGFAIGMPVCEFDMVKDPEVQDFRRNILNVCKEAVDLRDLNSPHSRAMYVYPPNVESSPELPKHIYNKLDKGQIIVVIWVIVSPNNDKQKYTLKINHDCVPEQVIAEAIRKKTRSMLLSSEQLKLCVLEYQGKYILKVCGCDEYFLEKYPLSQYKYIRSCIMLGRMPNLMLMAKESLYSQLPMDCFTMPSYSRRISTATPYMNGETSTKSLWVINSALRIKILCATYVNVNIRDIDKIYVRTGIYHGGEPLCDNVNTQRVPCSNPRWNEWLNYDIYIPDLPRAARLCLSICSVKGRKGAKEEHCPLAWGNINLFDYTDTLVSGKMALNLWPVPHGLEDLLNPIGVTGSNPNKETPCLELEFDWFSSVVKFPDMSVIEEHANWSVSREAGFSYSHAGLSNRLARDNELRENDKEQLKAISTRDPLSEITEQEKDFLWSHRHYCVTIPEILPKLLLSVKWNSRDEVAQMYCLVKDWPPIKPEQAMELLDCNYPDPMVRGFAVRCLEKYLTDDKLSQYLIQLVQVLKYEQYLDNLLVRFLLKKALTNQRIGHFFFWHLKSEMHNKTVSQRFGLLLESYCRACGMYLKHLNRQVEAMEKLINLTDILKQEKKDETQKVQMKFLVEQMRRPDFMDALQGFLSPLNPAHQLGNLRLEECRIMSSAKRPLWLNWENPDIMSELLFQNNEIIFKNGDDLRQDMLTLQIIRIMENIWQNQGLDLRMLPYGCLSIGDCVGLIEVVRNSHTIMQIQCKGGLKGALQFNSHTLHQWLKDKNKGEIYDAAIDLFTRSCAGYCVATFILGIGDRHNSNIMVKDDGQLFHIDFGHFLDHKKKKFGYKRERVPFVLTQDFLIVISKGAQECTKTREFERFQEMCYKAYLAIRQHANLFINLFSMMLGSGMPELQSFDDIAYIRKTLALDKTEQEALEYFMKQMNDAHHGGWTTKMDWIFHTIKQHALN
T2 sequence (P27986 whole entry partner, species assumed, canonical isoform): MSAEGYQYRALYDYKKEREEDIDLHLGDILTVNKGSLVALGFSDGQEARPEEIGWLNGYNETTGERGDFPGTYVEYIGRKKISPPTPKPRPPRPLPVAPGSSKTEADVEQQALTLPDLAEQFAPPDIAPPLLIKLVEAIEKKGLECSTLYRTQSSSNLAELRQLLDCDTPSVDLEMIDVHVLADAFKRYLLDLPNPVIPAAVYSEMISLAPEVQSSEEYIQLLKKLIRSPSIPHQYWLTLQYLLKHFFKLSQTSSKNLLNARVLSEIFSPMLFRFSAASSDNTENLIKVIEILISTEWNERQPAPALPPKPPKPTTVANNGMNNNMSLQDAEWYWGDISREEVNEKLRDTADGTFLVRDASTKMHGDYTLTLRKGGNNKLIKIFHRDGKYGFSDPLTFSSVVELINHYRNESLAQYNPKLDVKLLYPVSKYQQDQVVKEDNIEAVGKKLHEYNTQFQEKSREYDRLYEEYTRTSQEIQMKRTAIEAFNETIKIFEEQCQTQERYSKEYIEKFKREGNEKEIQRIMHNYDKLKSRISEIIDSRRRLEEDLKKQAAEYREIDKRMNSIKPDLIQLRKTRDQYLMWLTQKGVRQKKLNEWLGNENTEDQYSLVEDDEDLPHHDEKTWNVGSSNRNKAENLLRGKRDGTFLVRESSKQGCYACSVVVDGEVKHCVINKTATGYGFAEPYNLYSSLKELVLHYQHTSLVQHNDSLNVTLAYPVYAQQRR
T1 sequence (O00329 whole entry, canonical isoform): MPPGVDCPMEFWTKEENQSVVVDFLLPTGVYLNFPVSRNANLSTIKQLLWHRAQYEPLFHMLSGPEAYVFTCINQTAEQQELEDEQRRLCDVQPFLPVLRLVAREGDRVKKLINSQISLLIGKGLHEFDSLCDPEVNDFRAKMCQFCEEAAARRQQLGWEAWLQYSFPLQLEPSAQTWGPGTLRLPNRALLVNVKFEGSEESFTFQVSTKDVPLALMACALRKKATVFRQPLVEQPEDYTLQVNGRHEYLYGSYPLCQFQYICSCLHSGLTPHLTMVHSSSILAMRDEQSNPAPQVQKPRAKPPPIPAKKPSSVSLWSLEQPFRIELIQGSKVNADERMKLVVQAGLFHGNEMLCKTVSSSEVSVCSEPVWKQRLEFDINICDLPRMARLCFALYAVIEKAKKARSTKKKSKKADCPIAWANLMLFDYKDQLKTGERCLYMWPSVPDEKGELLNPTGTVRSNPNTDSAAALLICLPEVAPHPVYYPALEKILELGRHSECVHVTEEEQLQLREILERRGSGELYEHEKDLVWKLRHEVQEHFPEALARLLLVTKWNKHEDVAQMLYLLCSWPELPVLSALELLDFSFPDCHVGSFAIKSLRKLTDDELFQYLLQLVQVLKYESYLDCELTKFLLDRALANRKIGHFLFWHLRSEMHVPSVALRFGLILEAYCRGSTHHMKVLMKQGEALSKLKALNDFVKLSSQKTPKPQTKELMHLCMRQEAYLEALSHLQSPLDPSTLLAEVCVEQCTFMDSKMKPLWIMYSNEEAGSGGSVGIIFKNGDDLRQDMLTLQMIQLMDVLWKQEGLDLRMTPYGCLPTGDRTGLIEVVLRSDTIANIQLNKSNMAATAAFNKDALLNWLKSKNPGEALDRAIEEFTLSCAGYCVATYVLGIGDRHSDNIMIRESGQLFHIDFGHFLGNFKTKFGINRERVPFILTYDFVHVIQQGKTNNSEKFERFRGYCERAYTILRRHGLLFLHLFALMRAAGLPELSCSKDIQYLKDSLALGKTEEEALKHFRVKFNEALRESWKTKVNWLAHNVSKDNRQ
T1 sequence (P27986 whole entry partner, canonical isoform): as the sequence (P27986 whole entry partner, species assumed, canonical isoform) above

Row | pKi (p110 delta) | Ki p110 alpha/ Ki p110 delta (p110 alpha) | Compound
1 | 9.18 | 178 | CCc1nc2ccccc2n1-c1nc(N2CCOCC2)c2nc(OC3CN(C4CC[S+]([O-])CC4)C3)n(C)c2n1 (single isomer, unassigned) [Compound 123, 4-(2-(2-ethyl-1H-benzo[d]imidazol-1-yl)-9-methyl-8-(1-(1-oxo-tetrahydro-2H-thiopyran-4-yl)azetidin-3-yloxy)-9H-purin-6-yl)morpholine]
2 | 9.23 | 151 | CCc1nc2ccccc2n1-c1nc(N2CCOCC2)c2nc(OC3CCN(C4CCC(O)CC4)CC3)n(C)c2n1 (single isomer, unassigned) [Compound 130, 4-(4-(2-(2-ethyl-1H-benzo[d]imidazol-1-yl)-9-methyl-6-morpholino-9H-purin-8-yloxy)piperidin-1-yl)cyclohexanol]
3 |  | 115 | CCc1nc2ccccc2n1-c1nc(N2CCOCC2)c2nc(OC3CN(C(=O)C4CC4)C3)n(C)c2n1 [Compound 119, Cyclopropyl(3-(2-(2-ethyl-1H-benzo[d]imidazol-1-yl)-9-methyl-6-morpholino-9H-purin-8-yloxy)azetidin-1-yl)methanone]
4 | 8.91 | 93 | CCc1nc2ccccc2n1-c1nc(N2CCOCC2)c2nc(OC3CN(C(=O)[C@H](C)OC)C3)n(C)c2n1 [Compound 120, (S)-1-(3-(2-(2-ethyl-1H-benzo[d]imidazol-1-yl)-9-methyl-6-morpholino-9H-purin-8-yloxy)azetidin-1-yl)-2-methoxypropan-1-one]
5 | 8.89 | 51 | CCc1nc2ccccc2n1-c1nc(N2CCOCC2)c2nc(OC3CN(C(=O)C(C)(C)N)C3)n(C)c2n1 [Compound 121, 2-amino-1-(3-(2-(2-ethyl-1H-benzo[d]imidazol-1-yl)-9-methyl-6-morpholino-9H-purin-8-yloxy)azetidin-1-yl)-2-methylpropan-1-one]
6 | 9.04 | 188 | CCc1nc2ccccc2n1-c1nc(N2CCOCC2)c2nc(OC3CCNCC3)n(C)c2n1 [Compound 124, 4-(2-(2-ethyl-1H-benzo[d]imidazol-1-yl)-9-methyl-8-(piperidin-4-yloxy)-9H-purin-6-yl)morpholine]
7 | 9.01 | 485 | Cn1c(OC2CCN(C3CCOCC3)CC2)nc2c(N3CCOCC3)nc(-c3c(F)ccc4[nH]ccc34)nc21 [Compound 125, 4-(2-(5-fluoro-1H-indol-4-yl)-9-methyl-8-(1-(tetrahydro-2H-pyran-4-yl)piperidin-4-yloxy)-9H-purin-6-yl)morpholine]
8 | 9.00 | 88 | CC(C)C(=O)N1CC(Oc2nc3c(N4CCOCC4)nc(-c4c(F)ccc5[nH]ccc45)nc3n2C)C1 [Compound 126, 1-(3-(2-(5-fluoro-1H-indol-4-yl)-9-methyl-6-morpholino-9H-purin-8-yloxy)azetidin-1-yl)-2-methylpropan-1-one]
9 | 9.60 | 105 | Cc1nc2ccccc2n1-c1nc(N2CCOCC2)c2nc(OC3CCN(C4CCOCC4)CC3)n(C)c2n1 [Compound 127, 4-(9-methyl-2-(2-methyl-1H-benzo[d]imidazol-1-yl)-8-(1-(tetrahydro-2H-pyran-4-yl)piperidin-4-yloxy)-9H-purin-6-yl)morpholine]
10 |  | 126 | CCc1nc2ccccc2n1-c1nc(N2CCOCC2)c2nc(OC3CN(C(=O)C(C)(C)CO)C3)n(C)c2n1 [Compound 151, 1-(3-(2-(2-ethyl-1H-benzo [d]imidazol-1-yl)-9-methyl-6-morpholino-9H-purin-8-yloxy)azetidin-1-yl)-3-hydroxy-2,2-dimethylpropan-1-one]

The remaining lines, values behind:

Row | Compound | pKi (p110 delta) | Ki p110 alpha/ Ki p110 delta (p110 alpha)
11 | CCc1nc2ccccc2n1-c1nc(N2CCOCC2)c2nc(OC3CCN(C(C)=O)CC3)n(C)c2n1 [Compound 102, 1-(4-(2-(2-ethyl-1H-benzo[d]imidazol-1-yl)-9-methyl-6-morpholino-9H-purin-8-yloxy)piperidin-1-yl)ethanone] | 8.99 | 81
12 | CC(C)c1nc2ccccc2n1-c1nc(N2CCOCC2)c2nc(OC3CN(C4CCOCC4)C3)n(C)c2n1 [Compound 104, 4-(2-(2-isopropyl-1H-benzo[d]imidazol-1-yl)-9-methyl-8-(1-(tetrahydro-2H-pyran-4-yl)azetidin-3-yloxy)-9H-purin-6-yl)morpholine] | 9.19 | 202
13 | CCc1nc2ccccc2n1-c1nc(N2CCOCC2)c2nc(OC3CCN(C4CCS(=O)(=O)CC4)CC3)n(C)c2n1 [Compound 106, 4-(2-(2-ethyl-1H-benzo[d]imidazol-1-yl)-9-methyl-8-(1,1-dioxo-1-(tetrahydro-2H-thiopyran-4-yl)piperidin-4-yloxy)-9H-purin-6-yl)morpholine] | 9.36 | 73
14 | CCc1nc2ccccc2n1-c1nc(N2CCOCC2)c2nc(OC3CCN(C(=O)C(C)C)CC3)n(C)c2n1 [Compound 108, 1-(4-(2-(2-ethyl-1H-benzo[d]imidazol-1-yl)-9-methyl-6-morpholino-9H-purin-8-yloxy)piperidin-1-yl)-2-methylpropan-1-one] | 9.31 | 177
15 | CCc1nc2ccccc2n1-c1nc(N2CCOCC2)c2nc(OC3CCN(C4COC4)CC3)n(C)c2n1 [Compound 109, 4-(2-(2-ethyl-1H-benzo[d]imidazol-1-yl)-9-methyl-8-(1-(oxetan-3-yl)piperidin-4-yloxy)-9H-purin-6-yl)morpholine] | 8.94 | 32.2
16 | CCc1nc2ccccc2n1-c1nc(N2CCOCC2)c2nc(OC3CCN(C(=O)C4CC4)CC3)n(C)c2n1 [Compound 110, cyclopropyl(4-(2-(2-ethyl-1H-benzo[d]imidazol-1-yl)-9-methyl-6-morpholino-9H-purin-8-yloxy)piperidin-1-yl)methanone] | 8.98 | 98
17 | CC(C)c1nc2ccccc2n1-c1nc(N2CCOCC2)c2nc(OC3CN(C4COC4)C3)n(C)c2n1 [Compound 111, 4-(2-(2-isopropyl-1H-benzo[d]imidazol-1-yl)-9-methyl-8-(1-(oxetan-3-yl)azetidin-3-yloxy)-9H-purin-6-yl)morpholine] | 8.79 | 102
18 | CCc1nc2ccccc2n1-c1nc(N2CCOCC2)c2nc(OC3CCN(C(=O)C(C)(C)O)CC3)n(C)c2n1 [Compound 112, 1-(4-(2-(2-ethyl-1H-benzo[d]imidazol-1-yl)-9-methyl-6-morpholino-9H-purin-8-yloxy)piperidin-1-yl)-2-hydroxy-2-methylpropan-1-one] | 8.85 | 122
19 | CCc1nc2ccccc2n1-c1nc(N2CCOCC2)c2nc(OC3CCN(C(=O)C(C)(C)C)CC3)n(C)c2n1 [Compound 113, 1-(4-(2-(2-ethyl-1H-benzo[d]imidazol-1-yl)-9-methyl-6-morpholino-9H-purin-8-yloxy)piperidin-1-yl)-2,2-dimethylpropan-1-one] | 9.06 | 178
20 | CCc1nc2ccccc2n1-c1nc(N2CCOCC2)c2nc(OC3CN(C4CCS(=O)(=O)CC4)C3)n(C)c2n1 [Compound 114, 4-(2-(2-ethyl-1H-benzo[d]imidazol-1-yl)-9-methyl-8-(1-(1,1-dioxo-tetrahydro-2H-thiopyran-4-yl)azetidin-3-yloxy)-9H-purin-6-yl)morpholine] | 8.90 | 163
21 | CCc1nc2ccccc2n1-c1nc(N2CCOCC2)c2nc(OC3CN(C(=O)C(C)(C)O)C3)n(C)c2n1 [Compound 115, 1-(3-(2-(2-ethyl-1H-benzo[d]imidazol-1-yl)-9-methyl-6-morpholino-9H-purin-8-yloxy)azetidin-1-yl)-2-hydroxy-2-methylpropan-1-one] | 8.65 | 70
22 | CCc1nc2ccccc2n1-c1nc(N2CCOCC2)c2nc(OC3CN(C4CCOCC4)C3)n(C)c2n1 [Compound 116, 4-(2-(2-ethyl-1H-benzo[d]imidazol-1-yl)-9-methyl-8-(1-(tetrahydro-2H-pyran-4-yl)azetidin-3-yloxy)-9H-purin-6-yl)morpholine] | 8.89 | 118
23 | CCc1nc2ccccc2n1-c1nc(N2CCOCC2)c2nc(OC3CN(C(=O)[C@@H](C)OC)C3)n(C)c2n1 [Compound 117, (R)-1-(3-(2-(2-ethyl-1H-benzo[d]imidazol-1-yl)-9-methyl-6-morpholino-9H-purin-8-yloxy)azetidin-1-yl)-2-methoxypropan-1-one] | 9.30 | 132
24 | CCc1nc2ccccc2n1-c1nc(N2CCOCC2)c2nc(OC3CN(S(=O)(=O)C4CC4)C3)n(C)c2n1 [Compound 118, 4-(8-(1-(cyclopropylsulfonyl)azetidin-3-yloxy)-2-(2-ethyl-1H-benzo[d]imidazol-1-yl)-9-methyl-9H-purin-6-yl)morpholine] | 9.27 | 76
